{"source": "patent US3935221A", "about": "“Substituted fusaric acid derivatives” (Banyu Pharmaceutical Co., Ltd., priority 1971, dated 1976)", "key": {"[1]": {"assay": "Solubility", "assay_type": "physicochemical", "conditions": "qualitative"}, "[2]": {"system": "spontaneously hypertensive rats (SHR)", "assay": "Antihypertensive action in spontaneously hypertensive rats, systolic blood pressure measured plethysmographically", "assay_type": "in vivo, Wistar-derived)", "conditions": "for ED50: Rattus norvegicus", "description": "(§1) In this invention, 10-monohalo-fusaric acid can be prepared by dissolving dehydrofusaric acid in water or other suitable organic solvent, if necessary, together with a suitable reagent for generating hydrogen halide. Hydrogen halide is then introduced or generated to effect the addition reaction. […] The halo-fusaric halide can be prepared by reacting halogenating agent such as thionylchloride, hydrochloride with halo-fusaric acid in a solvent. The solvent can be inert solvent or halogenating agent such as thionyl chloride. The ahlo-fusaric acid amides of the invention can be prepared from the halo-fusaric halide in a solvent by introducing ammonia gas or adding methylamine, dimethylamine, ethylamine, diethylamine, etc.. The halogenating agents used for preparing halo-fusaric halide can be thionylchloride, hydrochloride, phosphorus pentachloride and phosphorus oxychloride. The thionylchloride can be used without a solvent, however, it is usual to carry out the halogenation of halo-fusaric acid in a solvent such as chloroform, benzene, etc.. The halo-fusaric halide reacts with ammonia or a lower alkylamine in a solvent such as chloroform, benzene, etc.. The ahlo-fusaric acid amide can be prepared from halo-fusaric acid ester by reacting it with an alkylamine. The halo-fusaric acid ester can be prepared by reacting halo-fusaric acid with an alcohol in the presence of […]. The details of the preparation of the halo-fusaric acid can be understood from the description of the examples. The halo-fusaric acid amides of the invention are characterized by a significant anti-hypertensive effects and low toxicity. The followings are test results of anti-hypertensive effects and toxicities of the typical halo-fusaric acid amides of the invention. The anti-hypertensive effects of dibromo, monobromo, dichloro and monochloro fusaric acid amide, monomethylamide, dimethylamide were compared with those of dibromofusaric acid and fusaric acid. Blood pressure of spontaneously hypertensive rats (SHR) derived from the colony of SHR produced by selective inbreeding of a strain of Wistar rats (Okamoto and Aoki, Jap. Circul. J. 27:282-293, 1963) was measured indirectly in unanaesthesized rats plethysmographically (Williams et al, J. Clin. Invest. 18:373-376, 1939). Thirty percent depression of systolic blood pressure was defined to be significant and effective change. […] LD50 of each drug was obtained using male mice (DBA)."}, "[3]": {"assay": "Acute toxicity, LD50 of each drug in male mice (DBA)", "assay_type": "in vivo", "conditions": "mouse, in vivo", "description": "as §1"}, "[4]": {"system": "male mice (DBA)", "assay": "Acute toxicity, LD50 of each drug in male mice (DBA)", "assay_type": "in vivo", "conditions": "male mice (DBA), summary statement", "description": "as §1"}, "[5]": {"system": "dopamine-β-hydroxylase", "conditions": "prior art statement; cited from earlier work"}, "[6]": {"conditions": "prior art statement; cited from earlier work"}, "[7]": {"conditions": "ip, read-out: ED50 (mg/kg) Intraperitoneally"}, "[8]": {"conditions": "po, read-out: ED50 (mg/kg) Orally"}, "[9]": {"conditions": "ip, intraperitoneal, male mice (DBA), read-out: LD50 (mg/kg) Intraperitaneally"}, "[10]": {"conditions": "oral, male mice (DBA), read-out: LD50 (mg/kg) Orally"}, "[11]": {"conditions": "ip, antihypertensive action, intraperitoneal, SHR, 30% depression of systolic blood pressure defined as effective, read-out: ED50 (mg/kg) Intraperitoneally"}, "[12]": {"conditions": "antihypertensive action, oral, SHR, 30% depression of systolic blood pressure defined as effective, read-out: ED50 (mg/kg) Orally"}}, "note": "Read-outs that look alike come from different tables or passages of the source."}
{"smiles": "CC(Br)CCc1ccc(C(=O)O)nc1", "note": "(stereo not shown) [10-bromo-fusaric acid, 5-(3-bromobutyl)picolinic acid]", "values": [{"measurement": "Solubility: insoluble", "setting": "[1]", "value": "insoluble in n-hexane, petroleum ether"}, {"measurement": "Solubility: soluble", "setting": "[1]", "value": "soluble in alcohol, chloroform, acetone, benzene, ethylacetate, and is soluble in hot water but difficulty soluble in cold water"}]}
{"smiles": "NC(=O)c1ccc(CCC(Br)CBr)cn1", "note": "(stereo not shown) [Compound 1, 5-(3,4-Dibromobutyl)picolinamide]", "values": [{"measurement": "Solubility: insoluble", "setting": "[1]", "value": "Insoluble in water, ether"}, {"measurement": "Solubility: soluble", "setting": "[1]", "value": "Soluble in alcohol, acetone, benzene, chloroform"}, {"measurement": "ED50", "setting": "[2]; [7]", "value": 1, "unit": "mg/kg"}, {"measurement": "ED50", "setting": "[2]; [8]", "value": 1.6, "unit": "mg/kg"}, {"measurement": "anti-hypertensive effects (in words)", "setting": "[2]; SHR, summary statement", "value": "the most effective drug for hypertension"}, {"measurement": "LD50", "setting": "[3]; [9]", "value": 1170, "unit": "mg/kg"}, {"measurement": "LD50", "setting": "[3]; [10]", "value": 1860, "unit": "mg/kg"}, {"measurement": "toxicity (in words)", "setting": "[4]", "value": "the least toxic"}]}
{"smiles": "CC(Br)CCc1ccc(C(N)=O)nc1", "note": "(stereo not shown) [Compound 2, 5-(3-Bromobutyl)picolinamide]", "values": [{"measurement": "ED50", "setting": "[2]; [11]", "value": 2, "unit": "mg/kg"}, {"measurement": "ED50", "setting": "[2]; [12]", "value": 4, "unit": "mg/kg"}, {"measurement": "LD50", "setting": "[3]; [9]", "value": 633, "unit": "mg/kg"}, {"measurement": "LD50", "setting": "[3]; [10]", "value": 1050, "unit": "mg/kg"}]}
{"smiles": "CN(C)C(=O)c1ccc(CCC(Br)CBr)cn1", "note": "(stereo not shown) [Compound 3, N.N-Dimethyl-5-(3,4-dibromobutyl)picolinamide]", "values": [{"measurement": "ED50", "setting": "[2]; [11]", "value": 3, "unit": "mg/kg"}, {"measurement": "ED50", "setting": "[2]; [12]", "value": 4, "unit": "mg/kg"}, {"measurement": "LD50", "setting": "[3]; ip", "value": 304, "unit": "mg/kg"}, {"measurement": "LD50", "setting": "[3]; po", "value": 500, "unit": "mg/kg"}]}
{"smiles": "NC(=O)c1ccc(CCC(Cl)CCl)cn1", "note": "(stereo not shown) [Compound 4, 5-(3,4-Dichlorobutyl)picolinamide]", "values": [{"measurement": "Solubility: insoluble", "setting": "[1]", "value": "Insoluble in water, ether"}, {"measurement": "Solubility: soluble", "setting": "[1]", "value": "Soluble in methanol, acetone, benzene, chloroform"}, {"measurement": "ED50", "setting": "[2]; [11]", "value": 2, "unit": "mg/kg"}, {"measurement": "ED50", "setting": "[2]; [12]", "value": 4, "unit": "mg/kg"}, {"measurement": "LD50", "setting": "[3]; [9]", "value": 374, "unit": "mg/kg"}, {"measurement": "LD50", "setting": "[3]; [10]", "value": 620, "unit": "mg/kg"}]}
{"smiles": "CN(C)C(=O)c1ccc(CCC(Cl)CCl)cn1", "note": "(stereo not shown) [Compound 5, N.N-Dimethyl-5-(3,4-dichlorobutyl)picolinamide]", "values": [{"measurement": "ED50", "setting": "[2]; [11]", "value": 5, "unit": "mg/kg"}, {"measurement": "ED50", "setting": "[2]; [12]", "value": 1.6, "unit": "mg/kg"}, {"measurement": "LD50", "setting": "[3]; ip", "value": 188, "unit": "mg/kg"}, {"measurement": "LD50", "setting": "[3]; po", "value": 300, "unit": "mg/kg"}]}
{"smiles": "O=C(O)c1ccc(CCC(Br)CBr)cn1", "note": "(stereo not shown) [Compound 6, 5-(3,4-dibromobutyl)picolinic acid, reference compound]", "values": [{"measurement": "Solubility: insoluble", "setting": "[1]", "value": "insoluble in cold water and petroleum ether"}, {"measurement": "Solubility: soluble", "setting": "[1]", "value": "soluble in alcohol, chloroform, benzene, ethylacetate, and hot water"}, {"measurement": "ED50", "setting": "[2]; [11]", "value": 3.2, "unit": "mg/kg"}, {"measurement": "ED50", "setting": "[2]; [12]", "value": 4, "unit": "mg/kg"}, {"measurement": "LD50", "setting": "[3]; [9]", "value": 132, "unit": "mg/kg"}, {"measurement": "LD50", "setting": "[3]; [10]", "value": 180, "unit": "mg/kg"}]}
{"smiles": "CCCCc1ccc(C(=O)O)nc1", "note": "[Compound 7, Fusaric acid]", "values": [{"measurement": "inhibition of the production of dopamine-β-hydroxylase", "setting": "[5]", "value": "inhibit the production of dopamine-β-hydroxylase"}, {"measurement": "ED50", "setting": "[2]; [7]", "value": 3.5, "unit": "mg/kg"}, {"measurement": "ED50", "setting": "[2]; [8]", "value": 4, "unit": "mg/kg"}, {"measurement": "LD50", "setting": "[3]; [9]", "value": 110, "unit": "mg/kg"}, {"measurement": "LD50", "setting": "[3]; [10]", "value": 130, "unit": "mg/kg"}, {"measurement": "toxicity", "setting": "[6]", "value": "quite high in toxicity"}]}
